Results from ChEMBL document CHEMBL5385921, “Kagimminols A and B, Cembrene-Type Diterpenes from an Okeania sp. Marine Cyanobacterium” (J Nat Prod, 2024).
Where a name gives a salt, the structure may show the parent alone.

Experiments:
[1] = test system: Trypanosoma brucei rhodesiense; test: Antitrypanosomal activity against blood stream form of Trypanosoma brucei rhodesiense IL-1501 assessed as growth inhibition incubated for 69 hrs by alamar blue staining based microplate fluorescence scanner analysis; format: functional, organism-based; details: IL-1501, 69 h
HeLa = test: Antiproliferative activity against human HeLa cells assessed as inhibition of cell growth incubated for 72 hrs by MTT assay; format: functional, cell-based

IC50 [1] | IC50 (HeLa) | SMILES
10 µM | > 30 µM | C/C1=C\C=C(\C(C)C)[C@@H](O)C[C@](C)(O)C(=O)CC/C(C)=C/CC1
3.4 µM | > 30 µM | CC(=O)O[C@H]1C[C@](C)(O)C(=O)/C=C(\O)[C@](C)(O)CCC/C(C)=C/C=C\1C(C)C
– | 0.5 µM | COc1cccc2c1C(=O)c1c(O)c3c(c(O)c1C2=O)C[C@@](O)(C(=O)CO)C[C@@H]3O[C@H]1C[C@H](N)[C@H](O)[C@H](C)O1 [DOXORUBICIN HYDROCHLORIDE]
